{"source": "patent US20090131356A1", "about": "“miR-15, miR-26, miR-31, miR-145, miR-147, miR-188, miR-215, miR-216, miR-331, mmu-miR-292-3P REGULATED GENES AND PATHWAYS AS TARGETS FOR THERAPEUTIC INTERVENTION” (ASURAGEN, INC., priority 2006, published 2009)", "key": {"[1]": {"tested_on": "Du145 human prostate cancer cells", "experiment": "Long-term growth curve with repeated electroporation, Du145", "type": "cell-based", "conditions": "1.6 μM miRNA electroporated, repeated on days 7 and 14, day 20", "experimental": "The inventors assessed the therapeutic effect of hsa-miR-15a for prostate cancer by using the Du145 human prostate cancer cell line, derived from a brain metastasis (Stone et al., 1978). The inventors conducted growth curve experiments in the presence of miRNA for up to 20 days. Since in vitro transfections of naked interfering RNAs, such as synthetic miRNA, are transient by nature and compromised by the dilution of the miRNA during ongoing cell divisions, miRNA was administered at multiple time points (Bartlett et al., 2006; Bartlett et al., 2007). To accommodate miRNA delivery into a large quantity of cells, the inventors employed the electroporation method for delivery of hsa-miR-15a or negative control miRNA into Du145 human prostate cancer cells. Briefly, 0.5×10^6 Du145 cells were electroporated with 1.6 μM hsa-miR-15a or negative control using the BioRad Gene Pulser Xcell™ instrument (BioRad Laboratories Inc., Hercules, Calif., USA), seeded and propagated in regular growth medium. Experiments were carried out in triplicates. When the control cells reached confluence (days 7 and 14), cells were harvested, counted and electroporated again with the respective miRNAs. To ensure similar treatment of both conditions as well as to accommodate exponential growth, the cell numbers used for the second and third electroporation were titrated down to the lowest count. The population doubling was calculated from these electroporation events using the formula PD=ln(Nf/N0)/ln2 and adjusting for the fact that approximately 72% of newly seeded cells adhere to the plate. Cell counts were extrapolated and plotted on a linear scale (FIG. 10). Arrows represent electroporation days. Standard deviations are included in the graphs.\nTo evaluate the therapeutic activity of hsa-miR-147 over an extended period of time, the inventors conducted growth curve experiments in the presence of miRNA for up to 21 days. Since in vitro transfections of naked interfering RNAs, such as synthetic miRNA, are transient by nature and compromised by the dilution of the oligo during ongoing cell divisions, miRNA was administered at multiple time points (Bartlett et al., 2006; Bartlett et al., 2007). To accommodate miRNA delivery into a large quantity of cells, the inventors employed the electroporation method to delivery hsa-miR-147 or negative control miRNA into PC3 and Du145 human prostate cancer cells. […] When the control cells reached confluence (days 7 and 14), cells were harvested, counted and electroporated again with the respective miRNAs. […] The population doubling was calculated from these electroporation events using the formula PD=ln(Nf/N0)/ln2 and adjusting for the fact that approximately 72% of newly seeded cells adhere to the plate. […]"}, "[2]": {"tested_on": "Du145 cells", "experiment": "Alamar Blue proliferation assay, Du145", "type": "cell-based, human", "conditions": "30 nM, normalized to negative control miRNA (100% proliferation)", "source_text": "The inventors assessed the therapeutic effect of hsa-miR-147 for prostate cancer by using 4 individual human prostate cancer cell lines. To measure cellular proliferation of prostate cancer cells, the following prostate cancer cell lines were used: PPC-1 and PC3, derived from a bone metastasis; Du145, derived from a brain metastasis; RWPE2, derived from prostate cells immortalized by human papillomavirus 18 and transformed by the K-RAS oncogene (Bello et al., 1997; Stone et al., 1978; Brothman et al., 1991). PC3, PPC-1, and Du145 cells lack expression of the prostate-specific antigen (PSA) and are independent of androgen receptor (AR) signaling. In contrast, RWPE2 cells test positive for PSA and AR.\nPPC-1, Du145 and RWPE2 cells were transfected with synthetic hsa-miR-147 (Pre-miR™-hsa-miR-147, Ambion cat. no. AM17100) or negative control miRNA (NC; Pre-miR™ microRNA Precursor Molecule-Negative Control #2; Ambion cat. no. AM17111) in a 96-well format using a lipid-based transfection reagent. […] Proliferation was assessed 4-7 days post-transfection using Alamar Blue™ (Invitrogen) following the manufacturer's instructions. […] Fluorescent light units (FLU) were measured after 3 hours, normalized to the control, and plotted as percent change in proliferation. […]"}}, "data": [{"substance": "hsa-miR-147: Synthetic pre-miR-147 (Ambion AM17100; Dharmacon in vivo); mature sequence GUGUGUGGAAAUGCUUCUGC, MIMAT0000251, SEQ ID NO:114 (synthetic pre-miR (Ambion/Dharmacon), chemistry not given here; listed as Homo sapiens)", "values": [{"measurement": "cells relative to cells electroporated with negative control miRNA", "setting": "[1]", "value": 2.90, "unit": "%"}, {"measurement": "inhibition of Du145 cell growth", "setting": "[1]; relative to proliferation of control cells (100%)", "value": 97.1, "unit": "%"}, {"measurement": "% proliferation", "setting": "[2]", "value": 61.50, "unit": "%"}]}]}
